Source: US4935434A, “Antiarthritic isoxazole-4-carboxamides” (Bristol-Myers Company, priority 1988, dated 1990)
Read-outs that look alike come from different tables or passages of the source.

How the values were obtained:
[1] = tested on: carragenin-induced paw edema; test: Carrageenin induced paw edema in the rat (CIP); type: in vivo, male Sprague Dawley rats; conditions: single oral dose 50 mg/kg 30 min. prior to carrageenin, determined 4 hrs. after injection, read-out: CIP % inhib. (reduction in paw volume)
Protocol: B. Carrageenin induced paw edema in the rat.
This test is based on the procedure originally described by Holsapple and Yim (Inflammation, 1984, 8:223). Six male Sprague Dawley rats weighing approx. 300 gm were used in each experimental group. The rats had been starved for 24 hours prior to injection of 0.1 ml of 1% carrageenin into the plantar surface of the left hind paw. Test compounds were dosed orally 30 minutes prior to carrageenin administration. The volumes of the left hind paws were measured by mercury displacement at 2,4, and 6 hours following carrageenin injection. The efficacy of a compound was expressed as the percent inhibition of carrageenin injected paw volume as compared to non-injected paw using the following equation: [formula] The peak of drug effects usually occurred 2-4 hours following carrageenin injection.
^c test compound administered as a single oral dose of 50 mg/kg 30
min. prior to carrageenin injection; % inhibition determined 4 hrs. after
carrageenin injection; I = <25% reduction in paw volume and A =
≥25% reduction in paw volume.

[2] = tested on: adjuvant-induced polyarthritis; test: Modified developing adjuvant arthritis in rats (adjuvant-induced polyarthritis, AIP); type: in vivo, male Lewis rats; conditions: Rattus norvegicus, po; for inhibition in vivo at 76 mg/kg: 76 mg/kg once daily p.o. d. 1-8; for inhibition in vivo at 50 mg/kg: 50 mg/kg once daily p.o. d. 1-8; for inhibition in vivo at 89 mg/kg: 89 mg/kg (d. 1-5) once daily p.o.; for inhibition in vivo at 100 mg/kg: 100 mg/kg once daily p.o. d. 1-8
Protocol: A. Modified developing adjuvant arthritis in rats.
This test is based on the procedure originally described by Pearson (Proc. Soc. Biol. Med., 1956, pp 91-5). Each experimental group used six male Lewis rats weighing approx. 250 gm. Arthritis was produced by a single intradermal injection of Mycobacterium butyricum (0.6 mg in 0.1 ml mineral oil) into the base of the tail. Test compounds were administered orally, once daily, starting on the day of inoculation (day 1) through day 8. The initial dosage was reduced during this period when side effects were observed. The paw volume (average of two hind paws) was measured by the mercury displacement method at least twice weekly during the course of the experiment (40 to 42 days). The efficacy of a compound was expressed as the percent reduction of hind paw volume of treated vs. untreated rats using the following equation: [formula]
^a once daily, p.o., from d. 1-8 (unless otherwise specified).
^b % inhibition of paw edema: 0 = <25; + = 25-<40; ++ = 40-<60; +++ =

[3] = 528 h, d. 20-22, read-out: AIP % inhib. (% inhibition of paw edema) d. 20-22
[4] = 1008 h, d. 40-42, read-out: AIP % inhib. (% inhibition of paw edema) d. 40-42

SMILES | inhibition in vivo at 50 mg/kg [1] [%] | inhibition in vivo at 50 mg/kg [2, 3] [%] | inhibition in vivo at 50 mg/kg [2, 4] [%] | further results
CC(C)NC(=O)c1cnoc1C1CC1 [Example 1, 5-Cyclopropylisoxazole-4-(N-isopropyl)carboxamide] | < 25 |  |  | inhibition in vivo at 76 mg/kg [2, 3]: 25 to 40%; inhibition in vivo at 76 mg/kg [2, 4]: 40 to 60%
CC(C)(C)NC(=O)c1cnoc1C1CC1 [Example 2, 5-Cyclopropylisoxazole-4-(N-tert-butyl)carboxamide] | < 25 | 40 to 60 | 40 to 60 | 
C#CCNC(=O)c1cnoc1C1CC1 [Example 3, 5-Cyclopropylisoxazole-4-[N-(2-propynyl)]carboxamide] | < 25 | 40 to 60 | 40 to 60 | 
O=C(NC1CC1)c1cnoc1C1CC1 [Example 4, 5-Cyclopropylisoxazole-4-(N-cyclopropyl)carboxamide] | < 25 |  |  | inhibition in vivo at 89 mg/kg [2, 3]: 40 to 60%; inhibition in vivo at 89 mg/kg [2, 4]: 60 to 80%
O=C(Nc1cccc(C(F)(F)F)c1)c1cnoc1C1CC1 [Example 5, 5-Cyclopropylisoxazole-4-carboxylic acid 4-(3-trifluoromethyl)anilide] | ≥ 25 | 40 to 60 | 60 to 80 | 
COc1ccc(NC(=O)c2cnoc2C2CC2)cc1 [Example 6, 5-Cyclopropylisoxazole-4-carboxylic acid (4-methoxy)anilide] | < 25 |  |  | inhibition in vivo at 100 mg/kg [2, 3]: < 25%; inhibition in vivo at 100 mg/kg [2, 4]: 40 to 60%
O=C(Nc1ccc(C(F)(F)F)cc1)c1cnoc1C1CC1 [Example 7, 5-Cyclopropylisoxazole-4-carboxylic acid 4-trifluoromethylanilide] | ≥ 25 |  |  | 
Cc1oncc1C(=O)NCc1ccc(C(F)(F)F)cc1 [Example 8, 5-Methylisoxazole-4-(N-4-trifluoromethylbenzyl)carboxamide] | < 25 |  |  | 
